Data as given in PMC3170524 (Physiological research / Academia Scientiarum Bohemoslovaca, 2010).
Residue numbers refer to the chain shown, from its start.

Experiments:
Assay in all cases: whole-cell patch clamp, peak current dose-response
Type in all cases: cell-based
rat P2X4R [1] = target: T1, rat P2X4R (Rattus norvegicus, UniProt P51577, C217T)
T1 sequence (P51577 1-388 C217T): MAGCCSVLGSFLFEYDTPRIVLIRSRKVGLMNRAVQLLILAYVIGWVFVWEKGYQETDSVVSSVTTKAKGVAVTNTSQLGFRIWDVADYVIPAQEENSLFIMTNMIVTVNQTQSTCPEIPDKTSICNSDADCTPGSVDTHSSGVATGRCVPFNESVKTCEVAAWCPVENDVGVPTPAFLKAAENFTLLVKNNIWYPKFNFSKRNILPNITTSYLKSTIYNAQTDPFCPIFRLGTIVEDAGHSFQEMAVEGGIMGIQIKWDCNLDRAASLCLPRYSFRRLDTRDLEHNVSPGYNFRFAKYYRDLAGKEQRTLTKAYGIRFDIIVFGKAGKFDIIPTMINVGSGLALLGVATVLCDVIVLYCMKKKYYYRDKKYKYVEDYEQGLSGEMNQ

rat P2X4R [2] = target: T2, rat P2X4R (Rattus norvegicus, UniProt P51577, C126A)
T2 sequence (P51577 1-388 C126A): T1 sequence (P51577 1-388 C217T) with C126A, T217C

rat P2X4R [3] = target: T3, rat P2X4R (Rattus norvegicus, UniProt P51577, C116T)
T3 sequence (P51577 1-388 C116T): T1 sequence (P51577 1-388 C217T) with C116T, T217C

rat P2X4R [4] = target: T4, rat P2X4R (Rattus norvegicus, UniProt P51577)
T4 sequence (P51577 1-388): T1 sequence (P51577 1-388 C217T) with T217C

rat P2X4R [5] = target: T5, rat P2X4R (Rattus norvegicus, UniProt P51577, C217R)
T5 sequence (P51577 1-388 C217R): T1 sequence (P51577 1-388 C217T) with T217R

rat P2X4R [6] = target: T6, rat P2X4R (Rattus norvegicus, UniProt P51577, C132T)
T6 sequence (P51577 1-388 C132T): T1 sequence (P51577 1-388 C217T) with C132T, T217C

rat P2X4R [7] = target: T7, rat P2X4R (Rattus norvegicus, UniProt P51577, C165T)
T7 sequence (P51577 1-388 C165T): T1 sequence (P51577 1-388 C217T) with C165T, T217C

Question: `Nc1ncnc2c1ncn2[C@@H]1O[C@H](COP(=O)(O)OP(=O)(O)OP(=O)(O)O)[C@@H](O)[C@H]1O` [ATP] was tested. Which EC50 (rat P2X4R [1]) did it give?
Answer: 7.2 ± 2.9 µM

Question: What about the EC50 (rat P2X4R [2]) of the same compound?
Answer: 24 ± 5.6 µM

Question: And the EC50 (rat P2X4R [3])?
Answer: 21 ± 4.1 µM

Question: And the EC50 (rat P2X4R [4])?
Answer: 4.6 ± 0.5 µM

Question: What about the EC50 (rat P2X4R [5]) of the same compound?
Answer: 9.2 ± 2.3 µM

Question: What about the EC50 (rat P2X4R [6]) of the same compound?
Answer: 8.2 ± 2.1 µM

Question: And the EC50 (rat P2X4R [7])?
Answer: 45 ± 3.8 µM
